The IC50 is the concentration that gives 50% inhibition.

One data set deals with T1, human CCR6 (Homo sapiens, UniProt P51684).
T1 construct: expressed in transfected cells; host or cells: HEK293
T1 sequence (P51684 1-374): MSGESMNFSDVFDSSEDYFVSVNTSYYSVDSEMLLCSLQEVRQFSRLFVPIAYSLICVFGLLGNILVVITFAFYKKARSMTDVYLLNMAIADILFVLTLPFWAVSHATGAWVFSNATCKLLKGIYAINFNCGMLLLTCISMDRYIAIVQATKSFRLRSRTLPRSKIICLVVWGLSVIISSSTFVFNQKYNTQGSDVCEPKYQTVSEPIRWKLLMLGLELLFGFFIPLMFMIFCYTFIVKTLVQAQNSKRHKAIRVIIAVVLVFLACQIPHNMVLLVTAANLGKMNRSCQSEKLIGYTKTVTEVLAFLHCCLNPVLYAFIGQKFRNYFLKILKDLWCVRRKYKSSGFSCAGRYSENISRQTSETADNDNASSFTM
As to the kind of experiment: human CCR6 calcium flux activity (FLIPR, HEK293 cells stably expressing human CCR6, CCL20 stimulation). Type of data set: cell-based. The settings on record: for IC50: HEK293 cells stably expressing human CCR6, EC80 human MIP-3 alpha/CCL20, read-out: CCR6 inhibitory activity, IC50; for CCR6 selectivity: ratio of CXCR2 IC50 to CCR6 IC50. A digest of the protocol: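 Compounds preincubated with Fluo-4 Direct-loaded cells 50 min at 37 °C, then 10 min at room temperature, before CCL20 challenge at EC80. Fluorescence (ex 494/em 516 nm) recorded 90 s; max−min signal gives inhibition, four-parameter fit yields IC50.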
(A change in cytosolic calcium serves as a functional read-out for many receptors and channels.)

Another data set has as its target T2, human CXCR2 (Homo sapiens, UniProt P25025).
T2 construct: expressed in transfected cells; host or cells: HEK293
T2 sequence (P25025 1-360): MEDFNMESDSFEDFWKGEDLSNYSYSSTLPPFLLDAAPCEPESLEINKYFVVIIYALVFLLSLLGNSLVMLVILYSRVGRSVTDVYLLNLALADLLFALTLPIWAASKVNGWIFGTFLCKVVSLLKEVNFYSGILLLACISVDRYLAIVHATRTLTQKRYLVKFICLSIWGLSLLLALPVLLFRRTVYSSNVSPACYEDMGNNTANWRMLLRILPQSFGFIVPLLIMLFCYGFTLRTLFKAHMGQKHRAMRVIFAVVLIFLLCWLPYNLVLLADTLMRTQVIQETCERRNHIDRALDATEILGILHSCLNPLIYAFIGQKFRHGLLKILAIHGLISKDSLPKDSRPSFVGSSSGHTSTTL
The data set is described as follows: human CXCR2 calcium flux activity (FLIPR, HEK293 cells stably expressing human CXCR2, IL-8 stimulation). Type of data set: cell-based. The settings on record: HEK293 cells stably expressing human CXCR2, EC80 human IL-8; read-out: CXCR2 inhibitory activity, IC50. The procedure:
The activity of the compounds was evaluated using HEK293 cells stably expressing human CXCR2 via the FLIPR platform. A 384-well black cell culture plate (Greiner, 781946) was used, with a seeding density of 20,000 cells/well, and incubated overnight at 37°C in a 5% CO2 incubator. The culture medium in the cell plate wells was removed, and 20 µL of Fluo-4 Direct™ Calcium Assay Buffer (Invitrogen, F10471, Component C), 20 µL of 2× Fluo-4 Direct™ Calcium Assay Reagent (Invitrogen, F10471, Component A) working solution, and 10 µL of 6× test compound working solution were sequentially added to each well. The cell plate was incubated in a 37 °C, 5% CO2 incubator for 50 min, followed by a 10 min incubation at room temperature. Additionally, a 6×EC80 human IL-8 (Sigma, SRP3311) working solution was prepared. After the incubation was completed, 10 µL/well of the 6×EC80 human IL-8 working solution was transferred to the corresponding cell wells using a FLIPR instrument, and the fluorescence signal changes at an excitation wavelength of 494 nm and an emission wavelength of 516 nm were recorded over 130 s. The difference between the maximum fluorescence signal (RFUMax) and the minimum fluorescence signal (RFUMin) was used as the output signal. The compound inhibition rate and the log value of the compound concentration were calculated, and a four-parameter fitting analysis was performed using GraphPad Prism 8 software to obtain the IC50 value of the test compound. Table 1. Inhibitory activity data of compounds against CCR6 and CXCR2

The nature of data set [1]: in vitro liver microsome metabolic stability, human. Type of data set: in vitro ADME. The settings on record: Human liver microsomes, 37°C. The procedure:
(§1) Preparation of working solutions for test compounds and standards: An appropriate amount of the compound was accurately weighed and dissolved in a corresponding volume of suitable solvent to prepare 1 mM stock solutions of the test compounds and standards. The stock solutions were then diluted with appropriate solvent to obtain 100 µM working solutions of the test compounds, ensuring that the DMSO content in the working solutions remained below 10%.
(§2) The internal standard compound testosterone (or tolbutamide) and its corresponding solvent, internal standard concentration (200 ng/mL), were selected based on the properties of the test compound.
(§3) • Solution A: 0.1 mol/L K2HPO4 (2.28 g K2HPO4·3H2O was dissolved in 100 mL of double-distilled water); • Solution B: 0.1 mol/L KH2PO4 (1.36 g KH2PO4 was dissolved in 100 mL of double-distilled water); • 80.2 mL of Solution A and 19.8 mL of Solution B were mixed thoroughly, and the pH was adjusted to 7.4.
(§4) 37.5 mg of glycine was weighed, dissolved in 100 mL of ultrapure water, and adjusted to pH 8.0 with NaOH.
(§5) 1.25 mg of glucose-6-phosphate dehydrogenase (400 U/mg) was weighed (the specific amount weighed was calculated based on the activity of the purchased glucose-6-phosphate dehydrogenase), dissolved in 1 mL of glycine buffer to a concentration of 500 U/mL, aliquoted into 20 µL per tube, and stored at -20°C for future use.
(§6) 7.83 mg of NADP, 0.06 mL of D-glucose-6-phosphate (260 mg/mL), and 10.17 mg of MgCl2·6H2O were precisely weighed.
(§7) The mixture was dissolved in 1 mL of pure water. The cofactor ratio composition: NADP 10 mM, D-glucose-6-phosphate 60 mM, MgCl2·6H2O 50 mM.
(§8) The reaction system (taking a 500 µL system as an example) was composed of the following solution ratios: 416.5 µL phosphate buffer, 5 µL compound working solution, 25 µL liver microsomes, 3.5 µL glucose-6-phosphate dehydrogenase, and 50 µL cofactor solution. The total incubation volume could be adjusted according to experimental requirements.
(§9) 416.5 µL of phosphate buffer was taken, 25 µL of liver microsomes, 3.5 µL of glucose-6-phosphate dehydrogenase, and 50 µL of cofactor solution were added, vortexed twice to mix, and preincubated in a 37°C water bath for 5 minutes. Then, 5 µL of the test compound working solution was added, vortexed twice to mix, each time for 2-3 seconds, and placed in a 37°C water bath to initiate the reaction, with two parallel samples set. At 0.5 min, 1 min, 2 min, 5 min, 15 min, and 30 min after the reaction, 50 µL of the mixture was taken and added to centrifuge tubes containing 200 µL of 0°C pre-cooled internal standard working solution to terminate the reaction, vortexed for 1 minute to mix, and centrifuged at 13,000 rpm for 10 minutes in a 4°C pre-cooled high-speed centrifuge. The supernatant was collected for analysis. After the compound was added and vortex-mixed, 50 µL of the mixture was rapidly transferred to a centrifuge tube containing 200 µL of a pre-cooled (0°C) internal standard working solution to terminate the reaction, vortex-mixed for 1 minute, and used as the relative zero-point sample (relative to the standard group). The sample was then placed into a 37°C water bath to initiate the reaction, and timing was started.
(§10) The sample analysis of the test compound was performed using the liquid chromatography-tandem mass spectrometry (LCMS/MS) method. The semi-quantitative determination was performed using the ratio of the analyte peak area to the internal standard peak area. The retention times of the analyte and internal standard, chromatogram acquisition, and chromatogram integration were processed using Analyst software.
(§11) The in vitro elimination rate constant k of the test compound and the control compound was determined by converting the ratio of the peak area of the test compound to the internal standard into the remaining rate, and T1/2 was then calculated according to the following formula. T1/2 = (Ln2)/(k) = (0.693)/(k) [formula] Table 3. […]
A general note: Microsomes from liver hold many membrane-bound enzymes, among them those of drug oxidation.

Data set [2] can be described thus: in vitro liver microsome metabolic stability, rat. The settings on record: Rat liver microsomes, 37°C. In kind it is in vitro ADME. The procedure:
as §1, §2, §3, §4, §5, §6, §7, §8, §9, §10, §11

The nature of data set [3]: in vitro liver microsome metabolic stability, beagle dog. In kind it is in vitro ADME. The settings on record: Beagle dog liver microsomes, 37°C. The procedure: as §1, §2, §3, §4, §5, §6, §7, §8, §9, §10, §11

As for `CNC(=O)c1c(Cl)ccc(Nc2c(N[C@@H](c3ncccc3C)C3(C)CCCC3)c(=O)c2=O)c1O` [compound 064, (R)-6-chloro-2-hydroxy-N-methyl-3-((2-(((1-methylcyclopentyl)(3-methylpyridin-2-yl)methyl)amino)-3,4-dioxocyclobut-1-en-1-yl)amino)benzamide], the IC50 at human CCR6 came to 6.5 nM; on human CXCR2 it was 11200 nM. The CCR6 selectivity on human CCR6 was 1730.2.

As to `Cc1ccc(C)c([C@H](Nc2c(Nc3ccnc(C(=O)N(C)C)c3O)c(=O)c2=O)C2(C)CCCC2)n1` [compound 051, (R)-4-((2-(((3,6-dimethylpyridin-2-yl)(1-methylcyclopentyl)methyl)amino)-3,4-dioxocyclobut-1-en-1-yl)amino)-3-hydroxy-N,N-dimethylpicolinamide], the half-maximal inhibitory concentration (IC50) at human CCR6 is 12.7 nM; on human CXCR2 it was 31400 nM. Moreover, on human CCR6, the CCR6 selectivity is recorded as 2469.1.

As for `CN(C)C(=O)c1nccc(Nc2c(N[C@@H](C#CC3CCC3)C3(C)CCCC3)c(=O)c2=O)c1O` [compound 116, (R)-4-((2-((3-cyclobutyl-1-(1-methylcyclopentyl)prop-2-yn-1-yl)amino)-3,4-dioxocyclobut-1-en-1-yl)amino)-3-hydroxy-N,N-dimethylpicolinamide], the IC50 amounted to 28.9 nM at human CCR6 and 379 nM on human CXCR2. At human CCR6, the CCR6 selectivity is listed as 13.1.

Consider `CN(C)C(=O)c1nccc(Nc2c(N[C@@H](c3ccc(Cl)cn3)C3(C)CCCC3)c(=O)c2=O)c1O` [compound 013, (R)-4-((2-(((5-chloropyridin-2-yl)(1-methylcyclopentyl)methyl)amino)-3,4-dioxocyclobut-1-en-1-yl)amino)-3-hydroxy-N,N-dimethylpicolinamide], for which the IC50 on human CCR6 amounted to 19.3 nM. Besides, the “Liver microsome T1-2 (min) Human” value in data set [1] is recorded as 345.84 min. For the same compound, in data set [2], the “Liver microsome T1-2 (min) Rat” value is on record as 54.23 min. The “Liver microsome T1-2 (min) Beagle dog” value in data set [3] is given as 252.63 min.

For `CC1([C@@H](Nc2c(Nc3ccnc(C(=O)N4CCOCC4)c3O)c(=O)c2=O)c2nc(F)ccc2F)CCCC1` [compound 060, (R)-3-(((3,6-difluoropyridin-2-yl)(1-methylcyclopentyl)methyl)amino)-4-((3-hydroxy-2-(morpholine-4-carbonyl)pyridin-4-yl)amino)cyclobut-3-ene-1,2-dione], the IC50 came to 1.9 nM on human CCR6 and 393 nM on human CXCR2. The CCR6 selectivity at human CCR6 amounted to 207.0.

For the compound `CN(C)C(=O)c1nccc(Nc2c(N[C@@H](c3nc(F)ccc3Cl)C3(C)CCCC3)c(=O)c2=O)c1O` [compound 025, (R)-4-((2-(((3-chloro-6-fluoropyridin-2-yl)(1-methylcyclopentyl)methyl)amino)-3,4-dioxocyclobut-1-en-1-yl)amino)-3-hydroxy-N,N-dimethylpicolinamide], on human CCR6, the IC50 is 2.8 nM and the CCR6 selectivity worked out at 282.4. For the same compound, on human CXCR2, the IC50 was 791 nM.

For the compound `CC#CC(Nc1c(Nc2ccnc(C(=O)N(C)C)c2O)c(=O)c1=O)C1(C)CCC(F)(F)C1` (stereo not drawn) [compound 111, 4-((2-((1-(3,3-difluoro-1-methylcyclopentyl)but-2-yn-1-yl)amino)-3,4-dioxocyclobut-1-en-1-yl)amino)-3-hydroxy-N,N-dimethylpicolinamide], the IC50 at human CCR6 is 106 nM. For the same compound, the “Liver microsome T1-2 (min) Human” value in data set [1] was found to be 548.28 min. Besides, the “Liver microsome T1-2 (min) Rat” value in data set [2] came out at 266.64 min. In addition, in data set [3], the “Liver microsome T1-2 (min) Beagle dog” value was 982.5 min.

Regarding `Cc1ccc(F)nc1[C@H](Nc1c(Nc2ccnc(C(=O)N(C)C)c2O)c(=O)c1=O)C1(C)CCCC1` [compound 014, (R)-4-((2-(((6-fluoro-3-methylpyridin-2-yl)(1-methylcyclopentyl)methyl)amino)-3,4-dioxocyclobut-1-en-1-yl)amino)-3-hydroxy-N,N-dimethylpicolinamide], the results for the IC50 on human CCR6 and on human CXCR2 were 14.3 nM and 6740 nM, respectively. Also, the CCR6 selectivity at human CCR6 was 471.4.

Turning to `Cc1nccnc1[C@H](Nc1c(Nc2ccc(Cl)c(C(=O)N(C)C)c2O)c(=O)c1=O)C1(C)CCCC1` [compound 078, (R)-6-chloro-2-hydroxy-N,N-dimethyl-3-((2-(((1-methylcyclopentyl)(3-methylpyrazin-2-yl)methyl)amino)-3,4-dioxocyclobut-1-en-1-yl)amino)benzamide], the IC50 at human CCR6 is 56.2 nM. The “Liver microsome T1-2 (min) Human” value in data set [1] came to 1014.44 min. Further, the “Liver microsome T1-2 (min) Rat” value in data set [2] amounted to 53.62 min. In data set [3], the “Liver microsome T1-2 (min) Beagle dog” value is on record as 1869.75 min.

Values taken from patent EP4703354A1, “COMPOUND AS CCR6 ANTAGONIST, AND PHARMACEUTICAL COMPOSITION AND USE THEREOF” (Wuhan Createrna Science and Technology Co.,Ltd., priority 2023, dated 2024).
